Patent US9023789B2, “Amylin analogs and pharmaceutical compositions thereof” (Novo Nordisk A/S, priority 2012, dated 2015)
pIC50: −log10 of the molar value.

Assays:
Sprague Dawley (SD) rats = experiment: ASSAY (I) efficacy testing on appetite (food intake) using an ad libitum fed rat model; assay type: in vivo; details: rat, 30 nmol/kg
Text: Sprague Dawley (SD) rats from Taconic Europe, Denmark are used for the experiments. The rats have a body weight 200-250 g at the start of experiment. The rats arrive at least 10-14 days before start of experiment to allow acclimatization to experimental settings. During this period the animals are handled at least 2 times. After arrival rats are housed individually for one week in a reversed light/dark phase (meaning that lights are off during daytime and on during nighttime) for two weeks. Since rats are normally active and eat their major part of their daily food intake during the dark period, rats are dosed in the morning right before lights are turned off. This set-up results in the lowest data variation and highst test sensitivity. The experiment is conducted in the rats' home cages and rats have free access to food and water throughout the acclimatization period and the experiment period. Each dose of derivative is tested in a group of 5-8 rats. A vehicle group of 6-8 rats is included in each set of testing. Rats are dosed once according to body weight with a 0.01-3 mg/kg solution administered intraperitoneally (ip), orally (po) or subcutaneously (sc). The time of dosing is recorded for each group. After dosing, the rats are returned to their home cages, where they then have access to food and water. The food consumption is recorded individually continuously by online registration or manually every hour for 7 hours, and then after 24 h and sometimes 48 h. At the end of the experimental session, the animals are euthanized.
The individual data are recorded in Microsoft excel sheets. Outliers are excluded after applying the Grubbs statistical evaluation test for outliers, and the result is presented graphically using the GraphPad Prism program.

[1] = biological target: T1, human amylin 3(a) receptor (human calcitonin receptor + RAMP-3) in BHK570 cells (Homo sapiens, UniProt O60896+P30988); experiment: ASSAY (II)a functional assay, human amylin receptor (CRE luciferase); assay type: cell-based
T1 construct: expressed in transfected cells
Text: 1. Luciferase Assay Outline
Activation of calcitonin and amylin (coexpression of calcitonin receptor and receptor activity modifying proteins (RAMP)) receptors lead to increased intracellular concentrations of cAMP. Consequently, transcription is activated by promoters containing multiple copies of the cAMP response element (CRE). It is thus possible to measure amylin activity by the use of a CRE luciferase reporter gene introduced into BHK cells also expressing calcitonin or amylin receptors.
2. Construction of Calcitonin (a)- and Amylin 3(a)-Receptor/CRE-Luc Cell Line.
The cell line was further transfected with RAMP-3, using standard methods. This turns the calcitonin receptor into an amylin 3(a) receptor. Methotrexate, Neomycin, and Hygromycin are selection markers for luciferase, the calcitonin receptor, and RAMP-3, respectively.
To perform activity assays, BHK calcitonin (a) receptor- or amylin 3(a)-receptor/CRE-luc cells were seeded in white 96 well culture plates at a density of about 20.000 cells/well. […] After incubation overnight at 37° C. and 5% CO2, the growth medium was replaced by 50 μl/well assay medium (DMEM (without phenol red), Glutamax™, 10% FBS, and 10 mM Hepes, pH 7.4). Further, 50 μl/well of standard or sample in assay buffer were added. After 3 hours incubation at 37° C. and 5% CO2, the assay medium with standard or sample were removed and replaced by 100 μl/well PBS. Further, 100 μl/well LucLite™ was added. The plates were sealed and incubated at room temperature for 30 minutes. Finally, luminescence was measured on a TopCounter (Packard) in SPC (single photon counting) mode.

[2] = biological target: T2, human amylin receptor (membranes from Amylin 3(a)/CRE-luc cells) (Homo sapiens, UniProt O60896+P30988); experiment: ASSAY (V) binding to the human amylin receptor (SPA, 125I-rat amylin);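 further: competition binding of cell membranes (35 ng/µL) mixed with SPA beads in 384-well plates at 40 µL total volume, read by scintillation counting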
T2 construct: expressed in transfected cells
T2 sequence (P30988 25-474): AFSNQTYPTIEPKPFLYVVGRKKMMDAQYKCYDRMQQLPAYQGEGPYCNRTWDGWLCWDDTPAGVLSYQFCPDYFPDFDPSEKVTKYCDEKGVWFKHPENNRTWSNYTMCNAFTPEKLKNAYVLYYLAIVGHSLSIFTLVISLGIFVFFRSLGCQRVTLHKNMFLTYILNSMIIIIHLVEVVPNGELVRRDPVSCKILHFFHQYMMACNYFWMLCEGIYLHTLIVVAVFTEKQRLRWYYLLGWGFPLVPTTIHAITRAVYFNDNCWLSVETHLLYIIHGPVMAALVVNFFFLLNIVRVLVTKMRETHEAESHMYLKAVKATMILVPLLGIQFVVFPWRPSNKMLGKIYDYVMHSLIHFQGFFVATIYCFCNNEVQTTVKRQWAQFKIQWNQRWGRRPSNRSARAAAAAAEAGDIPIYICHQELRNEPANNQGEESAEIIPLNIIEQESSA
T2 sequence (O60896 24-148 partner): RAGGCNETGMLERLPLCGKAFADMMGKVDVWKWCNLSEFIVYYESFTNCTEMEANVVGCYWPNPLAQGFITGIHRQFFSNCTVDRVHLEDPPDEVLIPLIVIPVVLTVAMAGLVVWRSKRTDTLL

[3] = biological target: T3, rat amylin receptor (rat calcitonin receptor + rat RAMP 3) (Rattus norvegicus, UniProt P32214+Q9JJ73); experiment: ASSAY (VI) binding to the rat amylin receptor
T3 construct: expressed in transfected cells; host or cells: BHK tk'ts 13 (transient, FuGENE 6), membranes
T3 sequence (P32214 25-479 isoform P32214-2 limits assumed): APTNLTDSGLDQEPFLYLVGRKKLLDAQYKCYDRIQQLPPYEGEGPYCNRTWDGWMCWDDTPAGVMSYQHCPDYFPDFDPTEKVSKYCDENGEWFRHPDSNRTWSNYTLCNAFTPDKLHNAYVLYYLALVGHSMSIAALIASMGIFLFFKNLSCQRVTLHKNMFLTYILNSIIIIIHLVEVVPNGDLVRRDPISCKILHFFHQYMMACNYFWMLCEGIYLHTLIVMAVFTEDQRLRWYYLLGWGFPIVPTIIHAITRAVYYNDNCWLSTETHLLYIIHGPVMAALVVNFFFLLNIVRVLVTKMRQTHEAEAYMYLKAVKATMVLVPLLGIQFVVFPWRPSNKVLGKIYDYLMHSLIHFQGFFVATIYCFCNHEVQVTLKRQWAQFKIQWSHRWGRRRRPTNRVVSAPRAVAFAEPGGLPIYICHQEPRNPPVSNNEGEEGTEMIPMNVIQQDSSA
T3 sequence (Q9JJ73 23-147 partner): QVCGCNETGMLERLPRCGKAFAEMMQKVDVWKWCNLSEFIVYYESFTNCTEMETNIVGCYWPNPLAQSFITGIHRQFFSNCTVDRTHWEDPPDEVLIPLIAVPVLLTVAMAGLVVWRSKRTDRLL
Method: Assay (VI)—Determination of the Binding to the Rat Amylin Receptor […] The BHK tk′ts 13 cells were transiently transfected with rat calcitonin receptor using FuGENE® 6 (Roche), according to the manufacturer's recommendations. […] Approximately 48 hours after transfection, the cells were harvested and membranes were prepared.

rat calcitonin receptor = biological target: T4, rat calcitonin receptor (Rattus norvegicus, UniProt P32214); experiment: ASSAY (VIII) binding to the rat calcitonin receptor; details: Table 7, read-out: rCTR bind IC50
T4 construct: expressed in transfected cells; host or cells: BHK tk'ts 13 (transient, FuGENE 6), membranes
T4 sequence (P32214 25-479 isoform P32214-2 limits assumed): T3 sequence (P32214 25-479 isoform P32214-2 limits assumed)
Method: Assay (VIII)—Determination of Binding to the Rat Calcitonin Receptor
The BHK tk′ts 13 cells were transiently transfected with rat calcitonin receptor using FuGENE® 6 (Roche), according to the manufacturer's recommendations. Cells were grown in DMEM with 10% FBS and 1% Pen/Strep. Approximately 48 hours after transfection, the cells were harvested and membranes were prepared.

Ratio hCT/hAmylin funct. ([1]; hCTR funct. EC50 divided by hAmylin-R funct. EC50): 261.1 | Ratio hCT/hAmylin funct. ([1]; hCTR funct. EC50 over hAmylin-R funct. EC50): 261.1 | Ratio hCT/hAmylin funct. ([1]; human functional selectivity: hCTR funct. EC50 / hAmylin-R funct. EC50): 261.1 | Ratio hCT/hAmylin binding ([2]; Table 5, selectivity, hCTR bind IC50 / hAmylin-R bind IC50): 306.6 | Ratio hCT/hAmylin binding ([2]; Table 5a, selectivity, hCTR bind IC50 / hAmylin-R bind IC50): 306.6 | Ratio hCT/hAmylin binding ([2]; Table 5b, selectivity, hCTR bind IC50 / hAmylin-R bind IC50): 306.6 | Ratio hCT/hAmylin binding ([2]; Table 5c, selectivity, hCTR bind IC50 / hAmylin-R bind IC50): 306.6 | Ratio hCT/hAmylin binding ([2]; Table 7, human binding selectivity, included for comparison): 306.6 | Ratio hCT/hAmylin binding ([2]; Table 7a (preferred compounds), human binding selectivity, included for comparison): 306.6 | Ratio hCT/hAmylin binding ([2]; ratio of human calcitonin receptor binding IC50 to human amylin receptor binding IC50): 306.6 | pIC50 ([3]; Table 7, binding to rat amylin receptor, read-out: rAmylin-R bind IC50): 8.77 | Ratio rCT/rAmylin binding ([3]; Table 7, rat binding selectivity, rCTR IC50 / rAmylin-R IC50): 316.7 | Ratio rCT/rAmylin binding ([3]; Table 7a (preferred compounds), rat binding selectivity, rCTR IC50 / rAmylin-R IC50): 316.7 | Ratio rCT/rAmylin binding ([3]; ratio of rCTR bind IC50 to rAmylin-R bind IC50): 316.7 | pIC50 (rat calcitonin receptor): 6.27
SMILES: CC[C@H](C)[C@H](NC(=O)[C@H](C)NC(=O)CNC(=O)[C@H](Cc1ccccc1)NC(=O)[C@H](CC(N)=O)NC(=O)[C@@H]1CCCN1C(=O)[C@H](CO)NC(=O)[C@H](CO)NC(=O)[C@H](Cc1c[nH]cn1)NC(=O)[C@H](CCCNC(=N)N)NC(=O)[C@H](CC(C)C)NC(=O)[C@H](Cc1ccccc1)NC(=O)[C@@H](CC(=O)O)NC(=O)[C@H](C)NC(=O)[C@H](CC(C)C)NC(=O)[C@H](CCCNC(=N)N)NC(=O)[C@H](CCC(N)=O)NC(=O)[C@@H](NC(=O)[C@H](C)NC(=O)[C@@H]1CSSC[C@H](NC(=O)[C@@H](N)CCCCNC(=O)CC[C@H](NC(=O)CC[C@H](NC(=O)CCCCCCCCCCCCCCCCCCC(=O)O)C(=O)O)C(=O)O)C(=O)N[C@@H](CC(N)=O)C(=O)N[C@@H]([C@@H](C)O)C(=O)N[C@@H](C)C(=O)N[C@@H]([C@@H](C)O)C(=O)N1)[C@@H](C)O)C(=O)N1CCC[C@H]1C(=O)N[C@@H](CO)C(=O)N[C@@H](CO)C(=O)N[C@H](C(=O)N[C@@H](CC(N)=O)C(=O)N[C@H](C(=O)NCC(=O)N[C@@H](CO)C(=O)N[C@@H](CCCNC(=N)N)C(=O)N[C@H](C(=O)N[C@@H](Cc1ccc(O)cc1)C(N)=O)[C@@H](C)O)C(C)C)[C@@H](C)O [Example 131]
Food intake reduction 0-24 h 30 nmol/kg (%) (Sprague Dawley (SD) rats; 0-24 h): 17% | Food intake reduction 24-48 h 30 nmol/kg (%) (Sprague Dawley (SD) rats; 24-48 h): 14%
